Source: PubChem BioAssay AID248 (DTP/NCI, 2004)
“And” between values parts separate entries of the source, which are not always exact repeats. Equal entries are not always repeated. Toxic doses and inconclusive results are not listed.

System: L1210 leukemia ip in BDF1 mice, survival T/C
Experiment: NCI In Vivo Anticancer Drug Screen. Data for tumor model L1210 Leukemia (intraperitoneal) in B6D2F1 (BDF1) mice
Conditions: endpoint: mean survival time, higher = longer survival
How it was run: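 Transplantable tumor model; survival measured in treated vs vehicle control mice. Value = treated/control.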

[1] = dose: 100.0 mg/kg/injection, schedule: Q04DX003 (ip), vehicle: saline
[2] = dose: 200.0 mg/kg/injection, schedule: Q04DX003 (ip), vehicle: saline
[3] = dose: 400.0 mg/kg/injection, schedule: Q04DX003 (ip), vehicle: saline
[4] = dose: 50.0 mg/kg/injection, schedule: Q01DX001 (ip), vehicle: carboxymethylcellulose (CMC)
[5] = dose: 100.0 mg/kg/injection, schedule: Q01DX001 (ip), vehicle: carboxymethylcellulose (CMC)
[6] = dose: 200.0 mg/kg/injection, schedule: Q01DX001 (ip), vehicle: carboxymethylcellulose (CMC)
[7] = dose: 400.0 mg/kg/injection, schedule: Q01DX001 (ip), vehicle: carboxymethylcellulose (CMC)
[8] = dose: 100.0 mg/kg/injection, schedule: Q04DX003 (ip), vehicle: saline with Tween-80
[9] = dose: 200.0 mg/kg/injection, schedule: Q04DX003 (ip), vehicle: saline with Tween-80
[10] = dose: 400.0 mg/kg/injection, schedule: Q04DX003 (ip), vehicle: saline with Tween-80

With `COC(=O)C=P(c1ccccc1)(c1ccccc1)c1ccccc1` the T/C (dose: 75.0 mg/kg/injection, schedule: Q01DX001 (ip), vehicle: carboxymethylcellulose (CMC)) was 98 % of control, the T/C (dose: 150.0 mg/kg/injection, schedule: Q01DX001 (ip), vehicle: carboxymethylcellulose (CMC)) was 98 % of control and the T/C (dose: 300.0 mg/kg/injection, schedule: Q01DX001 (ip), vehicle: carboxymethylcellulose (CMC)) was 101 % of control.
`Cc1cc[n+](CCCCCCCCCCO)cc1C` was tested, and the T/C (dose: 87.5 mg/kg/injection, schedule: Q01DX001 (ip), vehicle: saline) was 97 % of control.
In the case of `CC(=O)OCC(NC(=O)N(CCCl)N=O)C(OC(C)=O)C(OC(C)=O)C(COC(C)=O)OC(C)=O` (configuration not stated), the T/C (dose: 9.0 mg/kg/injection, schedule: Q01DX001 (ip), vehicle: saline + alcohol) is reported as 266 % of control, the T/C (dose: 13.0 mg/kg/injection, schedule: Q01DX001 (ip), vehicle: saline + alcohol) is reported as 179 % of control and the T/C (dose: 20.0 mg/kg/injection, schedule: Q01DX001 (ip), vehicle: saline + alcohol) is reported as 282 % of control.
For `C[n+]1c(-c2ccc(Cl)c(Cl)c2)c2cc([N+](=O)[O-])ccc2c2ccccc21`, the T/C [1] was 95 % of control, the T/C [2] was 93 % of control and the T/C [3] was 97 % of control.
`CC(=O)C1=CC2(OC3CCC(O)(C(=O)CO)C(C)O3)C(=O)c3c(cc4cccc(O)c4c3O)CC2C(O)C1O` (configuration not stated) was tested, and the T/C (dose: 3.12 mg/kg/injection, schedule: Q01DX001 (ip), vehicle: carboxymethylcellulose (CMC)) was 114 % of control, the T/C (dose: 6.25 mg/kg/injection, schedule: Q01DX001 (ip), vehicle: carboxymethylcellulose (CMC)) was 100 % of control and the T/C (dose: 12.5 mg/kg/injection, schedule: Q01DX001 (ip), vehicle: carboxymethylcellulose (CMC)) was 104 % of control. For the same compound, the T/C (dose: 25.0 mg/kg/injection, schedule: Q01DX001 (ip), vehicle: carboxymethylcellulose (CMC)) was 106 % of control, the T/C [4] was 115 % of control and the T/C (dose: 50.0 mg/kg/injection, schedule: Q01DX015 (ip), vehicle: carboxymethylcellulose (CMC)) was 102 % of control. The T/C [5] was 111 % of control, the T/C (dose: 100.0 mg/kg/injection, schedule: Q01DX015 (ip), vehicle: carboxymethylcellulose (CMC)) was 102 % of control and the T/C [6] was 100 % of control. For the same compound, the T/C (dose: 200.0 mg/kg/injection, schedule: Q01DX015 (ip), vehicle: carboxymethylcellulose (CMC)) was 93 % of control, the T/C [7] was 97 % of control and the T/C (dose: 400.0 mg/kg/injection, schedule: Q01DX015 (ip), vehicle: carboxymethylcellulose (CMC)) was 93 % of control.
In the case of `CC(=O)NC1C(OCc2ccccc2)OC2COC(C)(C)OC2C1O` (configuration not stated), the T/C (dose: 100.0 mg/kg/injection, schedule: Q01DX001 (ip), vehicle: saline with Tween-80) is reported as 107 % of control, the T/C (dose: 200.0 mg/kg/injection, schedule: Q01DX001 (ip), vehicle: saline with Tween-80) is reported as 93 % of control and the T/C (dose: 400.0 mg/kg/injection, schedule: Q01DX001 (ip), vehicle: saline with Tween-80) is reported as 110 % of control.
For `C=C1C(=O)OC2C1C1CC1(C)C1CC(OC(C)=O)C(C)C21O` (configuration not stated), the T/C (dose: 50.0 mg/kg/injection, schedule: Q01DX001 (ip), vehicle: water) was 103 % of control, the T/C (dose: 100.0 mg/kg/injection, schedule: Q01DX001 (ip), vehicle: water) was 92 % of control and the T/C (dose: 200.0 mg/kg/injection, schedule: Q01DX001 (ip), vehicle: water) was 103 % of control.
With `O=C(COc1ccc([N+](=O)[O-])cc1Cl)Nc1ccccc1` the T/C (dose: 100.0 mg/kg/injection, schedule: Q01DX009 (ip), vehicle: acetone) was 90 % of control, the T/C (dose: 100.0 mg/kg/injection, schedule: Q04DX003 (ip), vehicle: acetone) was 95 % of control and the T/C (dose: 200.0 mg/kg/injection, schedule: Q04DX003 (ip), vehicle: acetone) was 95 % of control. For the same compound, the T/C (dose: 400.0 mg/kg/injection, schedule: Q04DX003 (ip), vehicle: acetone) was 94 % of control.
With `COc1ccc(C=Nc2ccccc2N=Cc2ccc(OC)c(OC)c2)cc1OC` the T/C (dose: 100.0 mg/kg/injection, schedule: Q01DX009 (ip), vehicle: saline with Tween-80) was 106 % of control, the T/C [8] was 96 % of control and the T/C (dose: 200.0 mg/kg/injection, schedule: Q01DX009 (ip), vehicle: saline with Tween-80) was 97 % of control. For the same compound, the T/C [9] was 93 % of control, the T/C (dose: 400.0 mg/kg/injection, schedule: Q01DX009 (ip), vehicle: saline with Tween-80) was 106 % of control and the T/C [10] was 93 % of control.
`O=C(O)/C(=C\c1ccccc1)c1ccc([N+](=O)[O-])cc1` was tested, and the T/C [8] was 103 % of control, the T/C [9] was 92 % of control and the T/C [10] was 92 % of control.
`COCc1nc2ccccc2[nH]1` was tested, and the T/C [8] was 106 % of control, the T/C [9] was 97 % of control and the T/C [10] was 93 % of control.
In the case of `C[C@]12CCC(=O)C=C1CC[C@@H]1[C@@H]2CC[C@@]2(C)[C@H]1CC[C@]2(C)O`, the T/C (dose: 100.0 mg/kg/injection, schedule: Q04DX003 (sc), vehicle: steriod suspending solution) is reported as 95 % of control, the T/C (dose: 200.0 mg/kg/injection, schedule: Q04DX003 (sc), vehicle: steriod suspending solution) is reported as 102 % of control and the T/C (dose: 400.0 mg/kg/injection, schedule: Q04DX003 (sc), vehicle: steriod suspending solution) is reported as 97 % of control.
With `Oc1c(Cl)cc(Cl)cc1C1N(Cc2ccc(N(CCCl)CCCl)cc2Cl)CCCN1Cc1ccc(N(CCCl)CCCl)cc1Cl` the T/C [4] was 109 % of control, the T/C [5] was 105 % of control and the T/C [6] was 103 % of control. The T/C [7] was 103 % of control.
For `Fc1ccc(F)c(-c2c(F)ccc(F)c2F)c1F`, the T/C (dose: 25.6 mg/kg/injection, schedule: Q04DX002 (ip), vehicle: saline with Tween-80) was 100 % of control, the T/C (dose: 64.0 mg/kg/injection, schedule: Q04DX002 (ip), vehicle: saline with Tween-80) was 113 % of control and the T/C (dose: 160.0 mg/kg/injection, schedule: Q04DX002 (ip), vehicle: saline with Tween-80) was 95 % of control. The T/C (dose: 400.0 mg/kg/injection, schedule: Q04DX002 (ip), vehicle: saline with Tween-80) was 103 % of control.
`ICc1cc(CI)c(CI)cc1CI` was tested, and the T/C [8] was 92 % of control, the T/C [9] was 91 % of control and the T/C [10] was 91 % of control.
In the case of `C=CCOCC(O)CN(C)CCCCCCCCCCCC` (configuration not stated), the T/C (dose: 6.0 mg/kg/injection, schedule: Q04DX003 (ip), vehicle: Klucel (hydroxypropylcellulose) (HPC)) is reported as 98 % of control, the T/C (dose: 12.0 mg/kg/injection, schedule: Q04DX003 (ip), vehicle: Klucel (hydroxypropylcellulose) (HPC)) is reported as 96 % of control and the T/C (dose: 25.0 mg/kg/injection, schedule: Q01DX009 (ip), vehicle: Klucel (hydroxypropylcellulose) (HPC)) is reported as 109 % of control. For the same compound, the T/C (dose: 25.0 mg/kg/injection, schedule: Q04DX003 (ip), vehicle: Klucel (hydroxypropylcellulose) (HPC)) was 93 % of control and 96 % of control, the T/C (dose: 50.0 mg/kg/injection, schedule: Q01DX009 (ip), vehicle: Klucel (hydroxypropylcellulose) (HPC)) was 109 % of control and the T/C (dose: 100.0 mg/kg/injection, schedule: Q04DX003 (ip), vehicle: Klucel (hydroxypropylcellulose) (HPC)) was 96 % of control.
`Cc1cc(OC(=O)Nc2cc(C(F)(F)F)ccc2Cl)cc(C)c1Cl` was tested, and the T/C (dose: 100.0 mg/kg/injection, schedule: Q01DX009 (ip), vehicle: Klucel (hydroxypropylcellulose) (HPC)) was 91 % of control, the T/C (dose: 200.0 mg/kg/injection, schedule: Q01DX009 (ip), vehicle: Klucel (hydroxypropylcellulose) (HPC)) was 104 % of control and the T/C (dose: 400.0 mg/kg/injection, schedule: Q01DX009 (ip), vehicle: Klucel (hydroxypropylcellulose) (HPC)) was 93 % of control.
In the case of `O=S(=O)(Cc1ccccc1)C(Br)c1ccccc1` (configuration not stated), the T/C (dose: 100.0 mg/kg/injection, schedule: Q01DX001 (ip), vehicle: other) is reported as 101 % of control, the T/C [1] is reported as 108 % of control and the T/C (dose: 200.0 mg/kg/injection, schedule: Q01DX001 (ip), vehicle: other) is reported as 96 % of control. For the same compound, the T/C [2] was 97 % of control, the T/C (dose: 400.0 mg/kg/injection, schedule: Q01DX001 (ip), vehicle: other) was 98 % of control and the T/C [3] was 87 % of control.
For `CCOC(=O)C1C(=O)C(CN(CCCl)CCCl)C(=O)C(C(=O)OCC)C1c1cc(OC)c(OC)c(OC)c1` (configuration not stated), the T/C (dose: 100.0 mg/kg/injection, schedule: Q04DX002 (ip), vehicle: Klucel (hydroxypropylcellulose) (HPC)) was 114 % of control, the T/C (dose: 200.0 mg/kg/injection, schedule: Q04DX002 (ip), vehicle: Klucel (hydroxypropylcellulose) (HPC)) was 102 % of control and the T/C (dose: 400.0 mg/kg/injection, schedule: Q04DX002 (ip), vehicle: Klucel (hydroxypropylcellulose) (HPC)) was 111 % of control.
For `CC(=O)OCCn1c([N+](=O)[O-])cnc1/C=[N+](/[O-])CCOC(C)=O`, the T/C (dose: 100.0 mg/kg/injection, schedule: Q04DX002 (ip), vehicle: saline) was 103 % of control, the T/C (dose: 200.0 mg/kg/injection, schedule: Q04DX002 (ip), vehicle: saline) was 92 % of control and the T/C (dose: 400.0 mg/kg/injection, schedule: Q04DX002 (ip), vehicle: saline) was 100 % of control.
In the case of `N#CCCC(=O)c1ccncc1`, the T/C [8] is reported as 96 % of control, the T/C [9] is reported as 107 % of control and the T/C [10] is reported as 104 % of control.
